Results taken from ChEMBL document CHEMBL5291721, “A preclinical secondary pharmacology resource illuminates target-adverse drug reaction associations of marketed drugs” (Nat Commun, 2023).

Legend:
[1] = target: 3',5'-cyclic-AMP phosphodiesterase 4A (Homo sapiens, UniProt P27815); assay type: functional
Thromboxane A2 receptor = target: T1, Thromboxane A2 receptor (Homo sapiens, UniProt P21731); assay type: functional, cell-based
T1 sequence (P21731 whole entry): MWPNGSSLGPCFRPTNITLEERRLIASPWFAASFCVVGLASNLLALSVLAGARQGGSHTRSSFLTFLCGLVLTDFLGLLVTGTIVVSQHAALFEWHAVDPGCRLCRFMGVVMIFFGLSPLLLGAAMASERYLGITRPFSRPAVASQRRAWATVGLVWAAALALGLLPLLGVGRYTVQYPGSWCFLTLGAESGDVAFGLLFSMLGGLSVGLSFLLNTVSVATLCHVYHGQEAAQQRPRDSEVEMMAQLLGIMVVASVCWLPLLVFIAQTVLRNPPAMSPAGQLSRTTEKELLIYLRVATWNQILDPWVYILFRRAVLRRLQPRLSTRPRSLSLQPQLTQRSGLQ

[2] = target: T2, Muscarinic acetylcholine receptor M2 (Homo sapiens, UniProt P08172)
T2 sequence (P08172 whole entry): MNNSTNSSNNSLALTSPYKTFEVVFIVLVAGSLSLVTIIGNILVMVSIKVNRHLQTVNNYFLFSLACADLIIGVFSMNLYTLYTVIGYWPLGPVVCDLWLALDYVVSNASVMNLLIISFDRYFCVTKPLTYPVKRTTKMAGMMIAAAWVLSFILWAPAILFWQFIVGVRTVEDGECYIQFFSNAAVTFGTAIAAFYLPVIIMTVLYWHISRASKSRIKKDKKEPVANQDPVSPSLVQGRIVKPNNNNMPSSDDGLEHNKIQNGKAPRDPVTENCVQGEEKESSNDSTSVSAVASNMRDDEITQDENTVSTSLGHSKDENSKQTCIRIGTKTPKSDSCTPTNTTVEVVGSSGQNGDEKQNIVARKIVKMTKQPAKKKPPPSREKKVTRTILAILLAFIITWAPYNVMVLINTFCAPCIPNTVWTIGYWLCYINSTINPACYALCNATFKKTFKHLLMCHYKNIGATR
Note: assay procedure not described here.

3',5'-cyclic-AMP phosphodiesterase 4A, sequence (P27815 whole entry): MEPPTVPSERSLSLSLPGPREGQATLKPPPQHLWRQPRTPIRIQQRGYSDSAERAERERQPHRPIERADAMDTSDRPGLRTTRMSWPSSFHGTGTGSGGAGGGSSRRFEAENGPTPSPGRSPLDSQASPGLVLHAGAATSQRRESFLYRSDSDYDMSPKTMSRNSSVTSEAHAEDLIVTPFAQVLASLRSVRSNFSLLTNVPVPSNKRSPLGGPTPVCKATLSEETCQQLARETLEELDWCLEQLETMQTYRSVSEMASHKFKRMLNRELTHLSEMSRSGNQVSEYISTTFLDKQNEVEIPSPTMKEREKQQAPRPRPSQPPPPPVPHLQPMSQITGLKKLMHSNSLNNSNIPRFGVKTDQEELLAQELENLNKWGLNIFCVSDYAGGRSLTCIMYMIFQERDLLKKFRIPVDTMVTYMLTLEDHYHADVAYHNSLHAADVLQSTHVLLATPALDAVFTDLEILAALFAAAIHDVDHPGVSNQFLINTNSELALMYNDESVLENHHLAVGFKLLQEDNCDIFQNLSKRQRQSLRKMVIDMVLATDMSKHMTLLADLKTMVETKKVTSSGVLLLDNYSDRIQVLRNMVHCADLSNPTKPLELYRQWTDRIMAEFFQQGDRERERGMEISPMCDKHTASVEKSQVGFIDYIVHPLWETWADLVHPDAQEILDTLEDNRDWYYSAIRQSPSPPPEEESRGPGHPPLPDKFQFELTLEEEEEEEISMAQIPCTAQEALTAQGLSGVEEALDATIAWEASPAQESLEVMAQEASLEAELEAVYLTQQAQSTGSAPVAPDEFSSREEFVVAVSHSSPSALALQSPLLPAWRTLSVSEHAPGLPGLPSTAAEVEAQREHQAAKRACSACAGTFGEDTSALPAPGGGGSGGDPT

AC50 [1]: > 10000 nM
AC50 (Thromboxane A2 receptor): > 1000 nM
AC50 [2]: 768 nM
SMILES: CCN(CC)CCCC(C)Nc1c2ccc(Cl)cc2nc2ccc(OC)cc12 (stereo not drawn) [QUINACRINE]
